Test [1] addresses T1, Cholesteryl ester transfer protein (Homo sapiens, UniProt P11597).
T1 sequence (P11597 whole entry): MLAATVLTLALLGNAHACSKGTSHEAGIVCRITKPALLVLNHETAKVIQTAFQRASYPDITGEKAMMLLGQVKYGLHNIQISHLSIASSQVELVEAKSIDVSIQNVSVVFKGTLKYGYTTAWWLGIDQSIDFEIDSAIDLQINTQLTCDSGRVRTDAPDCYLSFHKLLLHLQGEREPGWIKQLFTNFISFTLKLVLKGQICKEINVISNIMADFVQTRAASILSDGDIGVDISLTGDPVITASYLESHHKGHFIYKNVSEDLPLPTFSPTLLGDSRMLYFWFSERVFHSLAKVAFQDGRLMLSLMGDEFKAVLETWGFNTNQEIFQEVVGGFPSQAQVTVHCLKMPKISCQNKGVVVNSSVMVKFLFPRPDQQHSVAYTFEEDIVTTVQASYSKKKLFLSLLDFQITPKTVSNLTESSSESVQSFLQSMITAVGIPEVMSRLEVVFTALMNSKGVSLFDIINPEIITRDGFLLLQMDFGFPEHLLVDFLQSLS
The test is described as follows: Tested for inhibition of [3H]cholesteryl linoleate(CE) transfer from donor HDL to acceptor LDL driven by recombinant human cholesteryl ester transfer protein.

Test [2] deals with T2, Cholesteryl ester transfer protein (Homo sapiens) (UniProt P11597).
T2 sequence (whole entry): T1 sequence (P11597 whole entry)
The test is described as follows: Tested for inhibition of [3H]cholesteryl linoleate(CE) transfer from donor HDL to acceptor LDL driven by recombinant human cholesteryl ester transfer protein at 30 micro M.

In test [3] the target is T1, Cholesteryl ester transfer protein. Kind of test: Tested for inhibition of [3H]cholesteryl linoleate(CE) transfer from donor HDL to acceptor LDL driven by recombinant human Cholesteryl ester transfer protein; Inactive.
Test [4] has the same target. Kind of test: Tested for inhibition of [3H]cholesteryl linoleate(CE) transfer from donor HDL to acceptor LDL driven by recombinant human Cholesteryl ester transfer protein.
The target is the same in test [5]. Kind of test: Tested for inhibition of [3H]cholesteryl linoleate(CE) transfer from donor HDL to acceptor LDL driven by recombinant human cholesteryl ester transfer protein; Inactive.
Test [6] has as its target T2, Cholesteryl ester transfer protein (Homo sapiens). The test is described as follows: Tested for inhibition of [3H]cholesteryl linoleate(CE) transfer from donor HDL to acceptor LDL driven by recombinant human Cholesteryl ester transfer protein at 30 micro M.
Test [7] concerns the target T1, Cholesteryl ester transfer protein. Kind of test: Tested for inhibition of [3H]cholesteryl linoleate(CE) transfer from donor HDL to acceptor LDL driven by recombinant human cholesteryl ester transfer protein; inactive.

These results are taken from ChEMBL document CHEMBL1129145, “Phosphonate-containing analogs of cholesteryl ester as novel inhibitors of cholesteryl ester transfer protein” (Bioorg Med Chem Lett, 1996).

Take `CCCCCCCCCCCCCCCCCCP(=O)(O)OCc1ccccc1`: the IC50 in test [1] is 2 µM.
As to `CCCCCCCCCCCCCCCCCCP(=O)(O)OC`, in test [2], the inhibition is 46%.
With `CCCCCCCCCCCCCCCCCCP(=O)(O)OC1c2ccccc2-c2ccccc21`, in test [3], the IC50 entry is “Not Active”.
For the compound `CCCCCCCCCCCCCCCP(=O)(O)OCc1ccccc1`, in test [4], the half-maximal inhibitory concentration (IC50) is 4 µM.
`CCCCCCCCCCCCCCCCCCP(=O)(O)CCc1ccccc1`: the IC50 in test [1] came out at 14 µM.
For `CCCCCCCCCCCCCCP(=O)(O)OCc1cccc(Oc2ccccc2)c1`, the 50% inhibitory concentration (IC50) in test [4] turned out to be 6 µM.
In the case of `CCCCCCCCCCCCCCCCCC[PH](=O)OCc1ccccc1` (stereo not given), the IC50 result in test [3] is listed as “Not Active”.
Turning to `CCCCCCCCCCCCCCP(=O)(O)OCc1ccoc1`, in test [4], the IC50 amounted to 15 µM.
For `CCCCCCCCCCCCCCCCCCP(=O)(OC)OCc1ccccc1` (stereo not given), in test [5], the IC50 entry is recorded as “Not Active”.
Consider `CCCCCCCCCCCCCCCCCC[PH](=O)O`, for which the inhibition in test [6] amounted to 28%.
With `CCCCCCCCCCCCCCCCCCP(=O)(O)Oc1cc2ccccc2c2ccccc12`, the IC50 entry in test [3] is “Not Active”.
On the same count and under the same terms, then `CCCCCC[PH](=O)OCc1ccccc1` (stereo not given), with “Not Active”.
For `CCCCCCCCCC[PH](=O)OCc1ccccc1` (stereo not given), the IC50 entry in test [3] is “Not Active”.
Consider `CCCCCCCCCCCCCCP(=O)(O)OCc1ccccc1`, for which the IC50 in test [4] was found to be 5 µM.
In the case of `CCCCCCCCCCCCCCCCCCP(=O)(O)Oc1ccc2c(c1)Cc1ccccc1-2`, the IC50 entry in test [3] is “Not Active”.
Consider `CCCCCCCCCCCCCc1n[nH]c(=S)n1-c1ccccc1`, for which, in test [4], the IC50 was found to be 1.5 µM.
With `CCCCCCCCCCCCCCCCCCP(=O)(O)O[C@H]1CC[C@@]2(C)C(CC[C@H]3[C@@H]4CC[C@H]([C@H](C)CCCC(C)C)[C@@]4(C)CC[C@@H]32)C1` (stereo not given in full), the inhibition in test [6] was 30%.
With `CCCCCCCCCCCCCCP(=O)(O)Oc1ccc2ccccc2c1`, the IC50 in test [4] was 24 µM.
For the compound `CCCCCCCCCCCCCCCCCCP(=O)(O)OCc1cccnc1`, in test [3], the IC50 entry is “Not Active”.
Take `CCCCCCCCCCCCCCCCCC[PH](=O)O[C@H]1CC[C@@]2(C)C(CC[C@H]3[C@@H]4CC[C@H]([C@H](C)CCCC(C)C)[C@@]4(C)CC[C@@H]32)C1` (stereo not given in full): in test [7], the 50% inhibitory concentration (IC50) entry is “Not Active”.
